Consider one compound from patent publication US20110009435A1, “HETERO BICYCLIC CARBOXAMIDE DERIVATIVES AND THEIR PHARMACEUTICAL USE AND COMPOSITIONS” (Pfizer, Inc., priority 2007, published 2011).

Each structure is given as a SMILES string.

Holding throughout (format): biochemical
One test concerns the target T1, Human recombinant MMP-14 (Homo sapiens, UniProt P50281).
T1 construct: The MMP-14 cDNA may be used to express the catalytic domain enzyme in E. coli inclusion bodies; made in house
The test can be described thus: In vitro MMP inhibition assay, MMP-14 catalytic domain (fluorogenic peptide substrate cleavage, Ki). Conditions: human MMP-14, catalytic domain (CD); read-out: hMMP Ki 14/CD. On the procedure:
(§1) Matrix Metalloproteinase inhibitor compounds were analyzed in in vitro MMP Inhibition assays to determine their ability to inhibit the MMP cleavage of peptide substrates. Inhibition constants (Ki) were calculated from the assayed compound-MMP interactions.
(§2) Human recombinant MMP-1, MMP-2, MMP-3, MMP-7, MMP-9, MMP-12, MMP-13, MMP-14 and MMP-15 were used in these assays. The enzymes are prepared following known laboratory procedures. Protocols for the preparation and use of these enzymes are available in the scientific literature. See, e.g., Enzyme Nomenclature (Academic Press, San Diego, Calif., 1992) and the citations therein. See also Frije et al., J. Biol. Chem., 26(24), 16766-73 (1994).
The MMP-14 cDNA may be used to express the catalytic domain enzyme in E. coli inclusion bodies. Then the enzyme is solubilized in urea, purified on a preparative […] reverse phase HPLC column, and refolded in the presence of zinc acetate and purified for use.
(§3) The fluorogenic, methoxycoumarin-containing polypeptide substrate MCA-ArgProLeuGlyLeuDpaAlaArgGluArgNH2 was used as the MMP substrate in the MMP inhibition assays for human recombinant MMP-1, MMP-2, MMP-7, MMP-9, MMP-12, MMP-13, MMP-14 and MMP-15. Here, “MCA” is 7-methoxycoumarin-4-yl acetyl and “Dpa” is 3-(2,4-dinitrophenyl)-L-2,3-di-aminopropionyl group. In the absence of MMP inhibitory activity, the substrate is cleaved at the Gly-Leu peptide bond. The cleavage separates the highly fluorogenic peptide from the 2,4-dinitrophenyl quencher, resulting in an increase of fluorescent intensity.
(§4) For the human MMP-1, MMP-2, MMP-7, MMP-9, MMP-12, MMP-13, MMP-14 and MMP-15 assays, dilutions of the inhibitors (or salts thereof) were prepared in 100% dimethyl sulfoxide (DMSO). The stock solutions were diluted in Buffer A (100 mM Tris-HCl, 100 mM NaCl, 10 mM CaCl2, 0.005% polyoxyethylene 23 lauryl ether, pH 7.5) to obtain solutions with different compound concentrations, i.e., assay solutions with different concentrations of the assayed MMP inhibitory compound in 1% DMSO. The experiment controls contained the same amount of Buffer A/DMSO as the assayed sample, but contained no inhibitor.
(§5) To determine Ki, the inhibitor samples are incubated at room temperature for 1 hr in the presence of enzyme and then 4 μM of appropriate MMP substrate was added, and samples were analyzed on a Tecan SpectraFlour Plus plate reader. The excitation wavelength is 330 nm, and the emission (fluorescence) wavelength is 420 nm. In the absence of MMP inhibitory activity, the substrate is cleaved at the Gly-Leu bond resulting in an increase of relative fluorescence. Inhibition is observed as a reduced rate of increase in relative fluorescence.
The inhibitors are analyzed using a single low enzyme concentration with a single substrate concentration fixed at or below the Km. This protocol is a modification of method by Knight et al., FEBS Lett., 296(3), 263-266 (1992). Apparent inhibitory constants are determined by non-linear regression of reaction velocity as a function of inhibitor and enzyme concentration using Morrison's equation, as described by Kuzmic, Anal. Biochem. 286, 45-50 (2000). Modifications were made in the non-linear regression method to allow a common control reaction rate and effective enzyme concentration to be shared between all dose-response relationships on a given assay plate. […]

For a further test, the target named is T2, Human recombinant MMP-2 (Homo sapiens, UniProt P08253).
T2 construct: made in house; host or cells: MMP-2-transfected p2AHT2 cells
T2 sequence (P08253 110-660): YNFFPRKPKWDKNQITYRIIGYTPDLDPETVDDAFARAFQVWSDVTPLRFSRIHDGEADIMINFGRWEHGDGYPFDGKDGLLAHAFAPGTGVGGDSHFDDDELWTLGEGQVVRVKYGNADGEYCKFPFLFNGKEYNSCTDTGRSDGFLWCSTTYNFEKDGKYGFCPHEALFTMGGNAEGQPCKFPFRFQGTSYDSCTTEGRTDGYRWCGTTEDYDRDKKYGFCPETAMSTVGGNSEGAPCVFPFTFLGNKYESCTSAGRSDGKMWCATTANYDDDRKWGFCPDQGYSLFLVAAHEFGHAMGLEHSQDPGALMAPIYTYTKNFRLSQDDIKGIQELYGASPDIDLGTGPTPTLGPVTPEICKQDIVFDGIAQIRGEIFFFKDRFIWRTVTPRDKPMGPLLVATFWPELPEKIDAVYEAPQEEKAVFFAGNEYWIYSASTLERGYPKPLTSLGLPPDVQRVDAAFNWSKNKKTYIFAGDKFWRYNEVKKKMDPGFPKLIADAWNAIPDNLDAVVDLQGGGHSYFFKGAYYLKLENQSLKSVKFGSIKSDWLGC
The test can be described thus: In vitro MMP inhibition assay, MMP-2 (fluorogenic peptide substrate cleavage, Ki). Conditions: human MMP-2, full length (FL); read-out: hMMP Ki 02/FL. As to the method:
as §1, §2
(§6) The MMP-1 proenzyme may be purified from spent media of MMP-1-transfected HT-1080 cells and the protein purified on a zinc chelating column. The MMP-2 proenzyme may be purified by gelatin Sepharose chromatography from MMP-2-transfected p2AHT2 cells. […]
(§7) The inhibitors are analyzed using a single low enzyme concentration with a single substrate concentration fixed at or below the Km. […] Apparent inhibitory constants are determined by non-linear regression of reaction velocity as a function of inhibitor and enzyme concentration using Morrison's equation, as described by Kuzmic, Anal. Biochem. 286, 45-50 (2000). […]

A further test has as its target T3, Human recombinant MMP-9 (Homo sapiens, UniProt P14780).
T3 construct: made in house; host or cells: MMP-9-transfected HT1080 cells
The test can be described thus: In vitro MMP inhibition assay, MMP-9 (fluorogenic peptide substrate cleavage, Ki). Conditions: human MMP-9, full length (FL); read-out: hMMP Ki 09/FL. As to the method:
as §1, §2, §6, §7

Another test concerns the target T4, Human recombinant MMP-15 (Homo sapiens, UniProt P51511).
T4 construct: The catalytic domain of MMP-12 and MMP-15 enzymes were purchased commercially for these assays; purchased
The test can be described thus: In vitro MMP inhibition assay, MMP-15 catalytic domain (fluorogenic peptide substrate cleavage, Ki). Conditions: human MMP-15, catalytic domain (CD); read-out: hMMP Ki 15/CD. On the procedure:
as §1, §2
The catalytic domain of MMP-12 and MMP-15 enzymes were purchased commercially for these assays.
as §3, §4, §5
The inhibitors are analyzed using a single low enzyme concentration with a single substrate concentration fixed at or below the Km. This protocol is a modification of method by Knight et al., FEBS Lett., 296(3), 263-266 (1992). Apparent inhibitory constants are determined by non-linear regression of reaction velocity as a function of inhibitor and enzyme concentration using Morrison's equation, as described by Kuzmic, Anal. Biochem. 286, 45-50 (2000). Modifications were made in the non-linear regression method to allow a common control reaction rate and effective enzyme concentration to be shared between all dose-response relationships on a given assay plate. Since the substrate concentration was chosen to be at or below the Km, the apparent Ki's from this analysis were reported as Ki's without correction for the influence of substrate.

T4 sequence (P51511 132-304 limits assumed): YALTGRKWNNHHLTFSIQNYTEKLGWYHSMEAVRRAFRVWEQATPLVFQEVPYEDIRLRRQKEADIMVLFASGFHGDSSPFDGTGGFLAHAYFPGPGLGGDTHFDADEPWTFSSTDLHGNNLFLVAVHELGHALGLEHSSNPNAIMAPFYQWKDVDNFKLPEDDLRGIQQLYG
T3 sequence (P14780 107-707 limits assumed): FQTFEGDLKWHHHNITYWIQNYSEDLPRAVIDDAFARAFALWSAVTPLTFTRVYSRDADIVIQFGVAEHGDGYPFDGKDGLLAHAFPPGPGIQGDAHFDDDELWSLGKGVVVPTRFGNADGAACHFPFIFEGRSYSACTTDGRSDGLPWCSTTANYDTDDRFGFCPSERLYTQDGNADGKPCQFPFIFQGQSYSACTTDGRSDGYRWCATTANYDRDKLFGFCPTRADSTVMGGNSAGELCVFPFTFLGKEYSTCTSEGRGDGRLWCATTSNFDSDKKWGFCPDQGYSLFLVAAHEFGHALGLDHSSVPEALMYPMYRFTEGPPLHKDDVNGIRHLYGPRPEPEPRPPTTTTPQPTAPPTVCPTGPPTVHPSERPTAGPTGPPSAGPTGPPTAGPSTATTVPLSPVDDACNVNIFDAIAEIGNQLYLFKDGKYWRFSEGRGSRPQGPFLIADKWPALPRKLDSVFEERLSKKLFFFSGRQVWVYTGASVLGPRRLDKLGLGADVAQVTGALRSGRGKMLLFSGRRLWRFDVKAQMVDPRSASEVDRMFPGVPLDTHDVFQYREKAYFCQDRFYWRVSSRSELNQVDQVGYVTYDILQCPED

Regarding `COc1cccc(CNC(=O)c2nc3ccc(F)c(OCCC4CCN(C(=O)CO)CC4)c3c(=O)[nH]2)c1` [Example 34, 6-fluoro-5-[2-(1-glycoloylpiperidin-4-yl)ethoxy]-N-(3-methoxybenzyl)-4-oxo-3,4-dihydroquinazoline-2-carboxamide], the Ki on Human recombinant MMP-14 was more than 10 µM; on Human recombinant MMP-2 it was 5.65 µM; at Human recombinant MMP-9, more than 10 µM; at Human recombinant MMP-15, more than 10 µM.
